Measurements: US11000033B2, “Ketone or oxime compound, and herbicide” (NISSAN CHEMICAL CORPORATION, priority 2014, dated 2021)

Tests used:
Assay type in all cases: in vivo
Leptochloa chinensis = assay: Test Example 3: herbicidal effect by foliage application, Wagner pot (symbol D); details: application herbicide amount 320 g/ha
In short: (§1)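 Foliar spray of a water-diluted emulsion at a predetermined herbicide amount, applied to 14-day-old plants. Seedlings were raised in flooded alluvial soil (0.1–0.5 cm water) at 25–30 °C in a greenhouse. Injury was rated after 3 weeks against fixed criteria.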

[1] = tested on: Echinochloa oryzacola Vasing.; assay: Test Example 2: herbicidal activity, application during weed generation in submerged conditions (symbol A); details: Table 23; application herbicide amount 320 g/ha; grade 0-5 by criteria of Test Example 1
In short: (§2)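 Scoring of herbicidal effect took place 3 weeks after treatment, using the criteria of the earlier test. Treatment was water-surface application of diluted emulsifiable compound at a set dose. Plants were at one- to two-leaf stage in submerged alluvial soil (4 cm depth), greenhouse 25-30° C.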

Monochoria vaginalis = assay: Test Example 1: herbicidal activity, application before weed generation in submerged conditions (symbol C); details: application herbicide amount 320 g/ha
In short: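 Application before weed emergence: an aqueous dilution of the emulsion formulation was poured onto the surface of 4 cm-deep floodwater on the day of sowing. Effect was judged after 3 weeks (greenhouse, 25–30 °C).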

Abutilon theophrasti = assay: Test Example 4: herbicidal effect by soil treatment (symbol M); details: application herbicide amount 320 g/ha
In short: (§3)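 Seeds were sown in sterilized diluvial soil, covered with about 1.5 cm of soil, and the soil surface was sprayed with a water-diluted emulsion of the compound at a predetermined rate. Plants grew in a greenhouse at 25° C. to 30° C.; effects were scored visually 3 weeks after application.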

Scirpus juncoides = assay: Test Example 2: herbicidal activity, application during weed generation in submerged conditions (symbol B); details: Table 23; application herbicide amount 320 g/ha; grade 0-5 by criteria of Test Example 1
In short: as §2

corn [2] = assay: Test Example 4: effect on crop by soil treatment (symbol c); details: application herbicide amount 320 g/ha
In short: (§4)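 Plants are raised in a greenhouse (25° C. to 30° C.) from spot-sown seed, which sits under about 1.5 cm of sterilized diluvial soil in a box shared with weed species.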

transplanted rice plant = assay: Test Example 1: effect on crop, application before weed generation in submerged conditions (symbol a); details: application herbicide amount 320 g/ha
In short: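 Rice at 2.5 leaf stage transplanted into submerged soil (4 cm depth) sown with three weed species; herbicide applied before weed emergence.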

Cyperus difformis = assay: Test Example 3: herbicidal effect by foliage application, Wagner pot (symbol E); details: application herbicide amount 320 g/ha
In short: as §1

Stellaria media = assay: Test Example 4: herbicidal effect by soil treatment (symbol P); details: application herbicide amount 320 g/ha
In short: as §3

soybean [3] = assay: Test Example 5: effect on crop by foliage application, plastic box (symbol d); details: 320 g/ha, 3 weeks after application
In short: (§5)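 Greenhouse test at 25° C. to 30° C. Seeds of crops and weeds were spot-sown in boxes of sterilized diluvial soil under roughly 1.5 cm soil cover, then grown for foliage treatment.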

wheat = assay: Test Example 4: effect on crop by soil treatment (symbol e); details: application herbicide amount 320 g/ha
In short: as §4

rice plant = assay: Test Example 5: effect on crop by foliage application, plastic box (symbol b); details: 320 g/ha, 3 weeks after application
In short: as §5

soybean [4] = assay: Test Example 4: effect on crop by soil treatment (symbol d); details: application herbicide amount 320 g/ha
In short: as §4

corn [5] = assay: Test Example 5: effect on crop by foliage application, plastic box (symbol c); details: 320 g/ha, 3 weeks after application
In short: as §5

beet = assay: Test Example 5: effect on crop by foliage application, plastic box (symbol f); details: 320 g/ha, 3 weeks after application
In short: as §5

[6] = tested on: Echinochloa crus-galli var. crus-galli; assay: Test Example 3: herbicidal effect by foliage application, Wagner pot (symbol H); details: application herbicide amount 320 g/ha
In short: as §1

Row | SMILES | herbicidal effect on D (Leptochloa chinensis), grade 0-5 (Leptochloa chinensis) | Herbicidal effect grade, A: Echinochloa oryzacola Vasing. [1] | Herbicidal effect grade, C: Monochoria vaginalis (Monochoria vaginalis) | M: Abutilon theophrasti, herbicidal effect grade (Abutilon theophrasti) | Herbicidal effect grade, B: Scirpus juncoides (Scirpus juncoides) | c: corn, effect on crop grade (corn [2]) | Effect grade on crop, a: transplanted rice plant (transplanted rice plant) | herbicidal effect on E, grade 0-5 (Cyperus difformis) | P: Stellaria media, herbicidal effect grade (Stellaria media) | d: soybean, effect on crop grade (soybean [3]) | e: wheat, effect on crop grade (wheat) | b: directly sowed rice plant, effect on crop grade (rice plant) | d: soybean, effect on crop grade (soybean [4]) | c: corn, effect on crop grade (corn [5]) | f: beet, effect on crop grade (beet) | herbicidal effect on H (Echinochloa crus-galli var. crus-galli), grade 0-5 [6] | d: soybean, effect on crop (criteria of Test Example 1) (soybean [3]) | b: directly sowed rice plant, effect on crop (criteria of Test Example 1) (rice plant) | c: corn, effect on crop (criteria of Test Example 1) (corn [5]) | f: beet, effect on crop (criteria of Test Example 1) (beet) | other results
1 | CON=C(C)CC1CC(O)=C(c2c(C)cc(OCc3ccncc3)cc2C)C1=O (mixture of isomers) [6-053] | 5 (Herbicidal ratio of 90% or more (almost completely withered)) | 3 (Herbicidal ratio of 40% or higher and lower than 70%) | 1 (Herbicidal ratio of 5% or higher and lower than 20%) | 0 (Herbicidal ratio of 5% or lower (almost no effect)) | 1 (Herbicidal ratio of 5% or higher and lower than 20%) | 1 (Herbicidal ratio of 5% or higher and lower than 20%) | 3 (Herbicidal ratio of 40% or higher and lower than 70%) | 3 (Herbicidal ratio of 40% or higher and lower than 70%) | 0 (Herbicidal ratio of 5% or lower (almost no effect)) | 0 (Herbicidal ratio of 5% or lower (almost no effect)) | 0 (Herbicidal ratio of 5% or lower (almost no effect)) | 3 (Herbicidal ratio of 40% or higher and lower than 70%) | 0 (Herbicidal ratio of 5% or lower (almost no effect)) | 2 (Herbicidal ratio of 20% or higher and lower than 40%) | 0 (Herbicidal ratio of 5% or lower (almost no effect)) | 5 (Herbicidal ratio of 90% or more (almost completely withered)) |  |  |  |  | 
2 | CC(=O)CC1CC(O)=C(c2c(C)cc(-c3ccc(C)cc3)cc2C)C1=O (centres unmarked) [7-007] | 5 (Herbicidal ratio of 90% or more (almost completely withered)) | 5 (Herbicidal ratio of 90% or more (almost completely withered)) | 3 (Herbicidal ratio of 40% or higher and lower than 70%) |  | 0 (Herbicidal ratio of 5% or lower (almost no effect)) |  | 5 (Herbicidal ratio of 90% or more (almost completely withered)) | 4 (Herbicidal ratio of 70% or higher and lower than 90%) |  |  |  |  |  |  |  | 5 (Herbicidal ratio of 90% or more (almost completely withered)) | 0 (Herbicidal ratio of 5% or lower (almost no effect)) | 5 (Herbicidal ratio of 90% or more (almost completely withered)) | 5 (Herbicidal ratio of 90% or more (almost completely withered)) | 0 (Herbicidal ratio of 5% or lower (almost no effect)) | Herbicidal effect grade, M: Abutilon theophrasti (Abutilon theophrasti): 0 (Herbicidal ratio of 5% or lower (almost no effect)); Effect on crop grade, c: corn (corn [2]): 3 (Herbicidal ratio of 40% or higher and lower than 70%); Herbicidal effect grade, P: Stellaria media (Stellaria media): 0 (Herbicidal ratio of 5% or lower (almost no effect)); Effect on crop grade, e: wheat (wheat): 0 (Herbicidal ratio of 5% or lower (almost no effect)); Effect on crop grade, d: soybean (soybean [4]): 0 (Herbicidal ratio of 5% or lower (almost no effect))
3 | CC(CC1CC(O)=C(c2c(C)cc(C)cc2C)C1=O)=NOCc1ccccc1 (centres unmarked) [1-020] | 5 (Herbicidal ratio of 90% or more (almost completely withered)) | 5 (Herbicidal ratio of 90% or more (almost completely withered)) | 4 (Herbicidal ratio of 70% or higher and lower than 90%) |  | 3 (Herbicidal ratio of 40% or higher and lower than 70%) |  | 5 (Herbicidal ratio of 90% or more (almost completely withered)) | 2 (Herbicidal ratio of 20% or higher and lower than 40%) |  | 0 (Herbicidal ratio of 5% or lower (almost no effect)) |  | 5 (Herbicidal ratio of 90% or more (almost completely withered)) |  | 1 (Herbicidal ratio of 5% or higher and lower than 20%) | 3 (Herbicidal ratio of 40% or higher and lower than 70%) | 5 (Herbicidal ratio of 90% or more (almost completely withered)) |  |  |  |  | M (Abutilon theophrasti) herbicidal effect grade (Abutilon theophrasti): 3 (Herbicidal ratio of 40% or higher and lower than 70%); c (corn) effect on crop grade (corn [2]): 1 (Herbicidal ratio of 5% or higher and lower than 20%); P (Stellaria media) herbicidal effect grade (Stellaria media): 0 (Herbicidal ratio of 5% or lower (almost no effect)); e (wheat) effect on crop grade (wheat): 2 (Herbicidal ratio of 20% or higher and lower than 40%); d (soybean) effect on crop grade (soybean [4]): 0 (Herbicidal ratio of 5% or lower (almost no effect))
4 | CON=C(C)CC1CC(OS(=O)(=O)N(C)C)=C(c2c(C)cc(C)cc2OC)C1=O (centres unmarked) [6-095] | 5 (Herbicidal ratio of 90% or more (almost completely withered)) | 5 (Herbicidal ratio of 90% or more (almost completely withered)) | 0 (Herbicidal ratio of 5% or lower (almost no effect)) |  | 3 (Herbicidal ratio of 40% or higher and lower than 70%) |  | 5 (Herbicidal ratio of 90% or more (almost completely withered)) | 5 (Herbicidal ratio of 90% or more (almost completely withered)) |  |  |  |  |  |  |  | 5 (Herbicidal ratio of 90% or more (almost completely withered)) | 3 (Herbicidal ratio of 40% or higher and lower than 70%) | 5 (Herbicidal ratio of 90% or more (almost completely withered)) | 5 (Herbicidal ratio of 90% or more (almost completely withered)) | 0 (Herbicidal ratio of 5% or lower (almost no effect)) | Herbicidal effect grade, M: Abutilon theophrasti (Abutilon theophrasti): 5 (Herbicidal ratio of 90% or more (almost completely withered)); Effect on crop grade, c: corn (corn [2]): 2 (Herbicidal ratio of 20% or higher and lower than 40%); Herbicidal effect grade, P: Stellaria media (Stellaria media): 0 (Herbicidal ratio of 5% or lower (almost no effect)); Effect on crop grade, e: wheat (wheat): 2 (Herbicidal ratio of 20% or higher and lower than 40%); Effect on crop grade, d: soybean (soybean [4]): 0 (Herbicidal ratio of 5% or lower (almost no effect))
5 | CON=C(C)CC1CC(OC(=O)CCCC(C)=O)=C(c2c(C)cc(-c3ccc(Cl)cc3)cc2C)C1=O (centres unmarked) [6-080] | 5 (Herbicidal ratio of 90% or more (almost completely withered)) | 5 (Herbicidal ratio of 90% or more (almost completely withered)) | 2 (Herbicidal ratio of 20% or higher and lower than 40%) | 0 (Herbicidal ratio of 5% or lower (almost no effect)) | 4 (Herbicidal ratio of 70% or higher and lower than 90%) | 0 (Herbicidal ratio of 5% or lower (almost no effect)) | 5 (Herbicidal ratio of 90% or more (almost completely withered)) | 5 (Herbicidal ratio of 90% or more (almost completely withered)) | 0 (Herbicidal ratio of 5% or lower (almost no effect)) |  | 0 (Herbicidal ratio of 5% or lower (almost no effect)) |  | 0 (Herbicidal ratio of 5% or lower (almost no effect)) |  |  | 5 (Herbicidal ratio of 90% or more (almost completely withered)) | 1 (Herbicidal ratio of 5% or higher and lower than 20%) | 5 (Herbicidal ratio of 90% or more (almost completely withered)) | 5 (Herbicidal ratio of 90% or more (almost completely withered)) | 0 (Herbicidal ratio of 5% or lower (almost no effect)) | 
